From patent US9872514B2, “Compounds, compositions, and methods for reducing or eliminating bitter taste” (Chromocell Corporation, priority 2010, dated 2018) come the findings set out here.

Common to all, as to assay type: in vivo, humans
Experiment [1] has as its system bitter taste of an aqueous solution of potassium lactate. Kind of experiment: Sip and spit bitterness rating of aqueous potassium lactate test solutions. To be noted: Homo sapiens, aqueous potassium lactate 41 g/L, 1% EtOH, dash = none of the tested conc. The procedure: (§1) A set of KCl solution standards was developed and each standard solution was assigned a bitterness taste score of 0-15 (corresponding to aqueous KCl concentrations of 0 mM-120 mM). Panelists were trained to recognize these standards. In addition, before each day of testing, panelists were tested to see if they could determine differences in taste between the standard solutions. If a panelist was unable to recognize a change in KCl concentration, they were excluded from the panel for that day.
(§2) In a blind taste test, panelists were asked to compare the bitter taste of a small quantity (e.g., 8 ml) of each of the KCl Test Solutions to the taste of a KCl solution standard, without swallowing (see, e.g., Table 1). Specifically, panelists were asked to rate the bitterness of each KCl Test Solution on a scale of 0-15 using the same scale developed for the KCl solution standards. Each sample was tested in 2-4 discrete taste test experiments. Panelists were asked to rinse with water, eat a cracker, and wait approximately 10 minutes between samples.
Edible potassium lactate solution compositions (“potassium lactate test solutions”) were prepared by first dissolving varying amounts of the test compounds in an amount of ethanol or water (depending on the solubility of the compound) to create a 5 mg/mL stock compound solution. An amount of this stock compound solution is then added to an aqueous potassium lactate solution. Enough EtOH is then added to the resulting stock compound/potassium lactate solution so that the final potassium lactate test solution contains 1% EtOH. Potassium lactate solution standards were similarly prepared by dissolving various amounts of potassium lactate in water and ethanol without adding any test compound.
The effect of the test compounds on the perception of the bitter taste of an aqueous solution of potassium lactate in humans was evaluated using the “sip and spit” test described in Example 2.

In experiment [2] the test system is bitter taste of KCl in solid-matrix foodstuffs. As to the kind of experiment: Latin Square-2AFC chew and spit test of KCl solid turkey. To be noted: Homo sapiens, 1.6% KCl (80% KCl:20% NaCl marinade), dash = none of the tested conc. The procedure:
The effect of the test compounds on the perception of the bitter taste of KCl in solid-matrix foodstuffs in humans was evaluated using a “chew and spit” test using a Latin Square-2AFC testing method as follows.
Two types of marinades containing Prague powder, sugar, Evian™ water, KCl and/or NaCl in water were prepared. One marinade contained 80% KCl, 20% NaCl (by weight) (i.e., marinade concentration of […]). A second marinade contained 60% KCl:40% NaCl (by weight) (i.e., marinade concentration of 1.2% KCl). Compound stock solutions were prepared by dissolving an amount of test compound in ethanol or water (depending on the solubility of the compound) to create a 5 mg/mL stock compound solution. Enough ethanol was added to each stock compound solution to generate a final stock compound solution containing 1% ethanol. The marinade, the stock compound solution and ground turkey were added to a mixing bowl, mixed at low-speed for about 2 minutes, and then mixed at high-speed for about 5 minutes. The marinated turkey mixture was divided into one pound aliquots, vacuum sealed into food saver bags, and allowed to marinate for about 2 hours in a refrigerator. The vacuum-sealed turkey was then cooked in an about 86° C. water bath for about 30 minutes. If after about 30 minutes, the internal turkey temperature had not reached about 170° F., the vacuum-sealed turkey was cooked for about an additional 5 minutes. The vacuum-sealed turkey was then refrigerated for about two weeks before taste testing. KCl standards were similarly prepared by dissolving KCl in the marinade without adding any test compound during the turkey preparation.
The panelists tasted portions by chewing and spitting. In order to eliminate any effects of sample order, a complete Latin Square design was employed so that each possible order of sample presentation was utilized across subjects. Each simple was tested in several discrete taste test experiments. Panelists were asked to rinse with water, cat a cracker, and wait about 10 minutes between samples. In each case, the panelists were asked to choose the sample that tasted less bitter.

Experiment [3] deals with bitter taste of an aqueous solution of KCl. As to the kind of experiment: Sip and spit bitterness rating of aqueous KCl test solutions. To be noted: Homo sapiens, aqueous KCl 4.85 g/L, 1% EtOH, bitterness scored 0-15 vs KCl standard, dash = none of the tested conc. As to the method:
An amount of this stock compound solution is then added to an aqueous KCl solution. Enough EtOH is then added to the resulting stock compound/KCl solution so that the final KCl test solution contains 1% EtOH. KCl solution standards were similarly prepared by dissolving various amounts of KCl in water and ethanol without adding any test compound.
The effect of the test compounds an the perception of the bitter taste of an aqueous solution of KCl in humans was evaluated using a “sip and spit” test as follows.
as §1, §2

For experiment [4] the test system is unchanged. Kind of experiment: Latin Square-2AFC sip and spit test of aqueous KCl solutions. To be noted: Homo sapiens, aqueous KCl 4.85 g/L, Latin Square-2AFC vs KCl standard, dash = none of the tested conc. The procedure: The effect of the test compounds on the perception of the bitter taste of an aqueous solution of KCl in humans was evaluated using a “sip and spit” test using a Latin Square-2AFC testing method as follows.
In a blind taste test, panelists were asked to compare the bitter taste of a small quantity (e.g., 8 ml) of a KCl Test Solution to the taste of a KCl solution standard (prepared as described in Example 1), without swallowing. NaCl solution standards were prepared as described in Example 1.
In order to eliminate any effects of sample order, a complete Latin Square design was employed so that each possible order of sample presentation was utilized across subjects. Each sample was tested in several discrete taste test experiments. Panelists were asked to rinse with water, eat a cracker, and wait about 10 minutes between samples. In each case, the panelists were asked to choose the sample which tasted “less bitter.” Illustrative results of the aqueous solution Latin Square-2AFC testing are presented in Table 5.

The subject of experiment [5] is bitter taste of potassium lactate foodstuffs. As to the kind of experiment: 2AFC sip and spit test of potassium lactate turkey foodstuff slurries. The conditions noted are these: turkey slurry, 4.5% potassium lactate, 2AFC vs standard; dash = none of the tested conc. The procedure: (§3) In a blind taste test, panelists received two portions of turkey slurry—one portion being the KCl foodstuff slurry standard and the other being one of the KCl test foodstuff slurries (each prepared as described in Example 5). The panelists tasted each of the portions by sipping and spitting. Each sample was tested in 2-4 discrete taste test experiments. Panelists were asked to rinse with water, eat a cracker, and wait about 10 minutes between samples. In each case, the panelists were asked to compare the bitter taste of the two turkey samples to each other (i.e., panelists were asked to indicate which sample was less bitter).
Edible potassium lactate food compositions (“potassium lactate test foodstuff slurries”) were prepared as follows. Dehydrated, salt-free turkey powder was weighed and mixed with various amounts of potassium lactate and/or sodium lactate and then solubilized with boiling water to create a homogenized solubilized turkey slurry. Varying amounts of the test compounds were dissolved in an amount of ethanol or water depending on the solubility of the compound) to create a 5 mg/mL stock compound solution. An amount of this stock compound solution was then added to the turkey slurry. Enough EtOH is then added to the resulting stock compound/turkey slurry so that the final slurry contains 1% EtOH. The final slurry was again homogenized by boiling and mixing and allowed to cool to yield the final slurry for taste testing. Potassium lactate foodstuff slurry standards were similarly prepared without any test compound.
The effect of the test compounds on the perception of the bitter taste of potassium lactate foodstuffs in humans was evaluated using the two-alternative-forced-choice “sip and spit” test described in Example 6.

In experiment [6] the test system is bitter taste of KCl foodstuff slurries. As to the kind of experiment: Two-alternative forced choice (2AFC) sip and spit test of KCl turkey foodstuff slurries. To be noted: Homo sapiens, turkey slurry, 1.6% KCl, 2AFC vs KCl slurry standard, dash = none of the tested conc. As to the method:
Edible KCl food compositions (“KCl test foodstuff slurries”) were prepared as follows. Dehydrated, salt-free turkey powder was weighed and mixed with various amounts of KCl and/or NaCl and then solubilized with boiling water to create a homogenized solubilized turkey slurry. Varying amounts of the test compounds were dissolved in an amount of ethanol or water (depending on the solubility of the compound) to create a 5 mg/mL stock compound solution. An amount of this stock compound solution was then added to the turkey slurry. Enough EtOH is then added to the resulting stock compound/turkey slurry so that the slurry contains 1% EtOH. The slurry was again homogenized by boiling and mixing and allowed to cool to yield the final KCl test foodstuff slurry for taste testing KCl foodstuff slurry standards were similarly prepared without any test compound.
The effect of the test compounds on the perception of the bitter taste of KCl foodstuff slurries in humans was evaluated using a two-alternative-forced-choice “sip and spit” test as follows.
as §3

[7] abbreviates: read-out: Conc. Where Decrease in Bitter Taste Discerned and p ≦ 0.1.
Where [8] appears, read: read-out: Conc. at Which At Least 50% of Panelist Discerned Decrease in Bitter Taste.
Setting [9] is: read-out: Conc. Where Decrease in Bitter Taste Was Discerned.
[10] abbreviates: read-out: Conc. at Which At Least 50% of Panelist Discerned Decrease in Bitter Taste and p ≦ 0.1.

Each structure is given as a SMILES string. Where two headings read alike, the source gives them in different places.

With `CC(C)=CCC/C(C)=C\COC(=O)C(C)C` [Compound 34], the minimal effective concentration in experiment [1] (setting [7]) was 1 µg/mL; in experiment [2] (setting [8]), 2 µg/mL.

Turning to `CCC1(O)C2(C)CCC(C2)C1(C)C` (centres unmarked) [Compound 85], the minimal effective concentration in experiment [3] (setting [7]) is 1 µg/mL; in experiment [1] (setting [7]) it was 5 µg/mL; in experiment [1] (setting [9]) it was 5 µg/mL; in experiment [4] (setting [8]), 0.005 µg/mL; in experiment [2] (setting [10]) it was 1 µg/mL.

Regarding `CC(=O)OC/C=C(\C)CCC[C@H](C)CCC[C@H](C)CCCC(C)C` [Compound 41], the minimal effective concentration in experiment [3] (setting [7]) amounted to 10 µg/mL; in experiment [3] (setting [9]) it was 10 µg/mL; in experiment [1] (setting [9]) it was 5 µg/mL; in experiment [4] (setting [10]), 1 µg/mL; in experiment [2] (setting [10]), 2.5 µg/mL.

Take `CC12CCC(CC1=O)C2(C)C` (centres unmarked) [Compound 74]: the “Conc. at Which At Least 50% of Panelist Discerned Decrease in Bitter Taste” value in experiment [5] worked out at 1 ppm. Moreover, the minimal effective concentration in experiment [1] (setting [7]) stood at 1 µg/mL; in experiment [1] (setting [9]), 1 µg/mL; in experiment [4] (setting [10]), 1 µg/mL; in experiment [2] (setting [10]) it was 10 µg/mL; in experiment [6] (setting [8]), 10 µg/mL.

In the case of `COc1ccc2c(=O)cc(-c3ccccc3)oc2c1` [Compound 95], in experiment [5], the “Conc. at Which At Least 50% of Panelist Discerned Decrease in Bitter Taste and p ≦ 0.1” value was 10 ppm. Besides, the minimal effective concentration in experiment [1] (setting [7]) was found to be 1 µg/mL.

For the compound `CC(C)=CCC/C(C)=C\CO` [Compound 31], the minimal effective concentration came out at 10 µg/mL in experiment [3] (setting [7]), 10 µg/mL in experiment [1] (setting [7]), 4 µg/mL in experiment [2] (setting [10]) and 10 µg/mL in experiment [6] (setting [8]).

Regarding `CCC(=O)OCCC(C)CCC=C(C)C` (centres unmarked) [Compound 10], the minimal effective concentration came out at 1 µg/mL in experiment [3] (setting [7]), 0.1 µg/mL in experiment [1] (setting [9]), 0.5 µg/mL in experiment [2] (setting [8]) and 0.1 µg/mL in experiment [6] (setting [8]).

Consider `O=Cc1ccc2c(c1)OCO2` [Compound 114], for which the minimal effective concentration in experiment [4] (setting [10]) was found to be 25 µg/mL.

Turning to `OCc1ccc(O)cc1` [Compound 69], the minimal effective concentration worked out at 1 µg/mL in experiment [3] (setting [7]), 1 µg/mL in experiment [2] (setting [10]) and 10 µg/mL in experiment [6] (setting [10]).

Turning to `O=C1CCc2ccccc2O1` [Compound 53], the minimal effective concentration in experiment [3] (setting [7]) was 10 µg/mL; in experiment [1] (setting [7]) it was 10 µg/mL; in experiment [1] (setting [9]) it was 10 µg/mL; in experiment [4] (setting [8]) it was 1 µg/mL. For the same compound, the “Conc. at Which At Least 50% of Panelist Discerned Decrease in Bitter Taste” value in experiment [5] was 5 ppm.

In the case of `CCC(=O)OC/C=C(\C)CCC=C(C)C` [Compound 22], the minimal effective concentration in experiment [3] (setting [7]) came out at 1 µg/mL; in experiment [1] (setting [7]) it was 1 µg/mL; in experiment [4] (setting [10]), 0.25 µg/mL.

On to `CC(C)=CCCC(C)CCOC(=O)C(C)C` (centres unmarked) [Compound 11], for which the values for the minimal effective concentration in experiment [3] (setting [7]) and in experiment [4] (setting [8]) were 10 µg/mL and 1 µg/mL, respectively.

For `C[C@H]1CC[C@@H](C(C)(C)O)CC2=C1CC[C@@H]2C` [Compound 120], the “Conc. at Which At Least 50% of Panelist Discerned Decrease in Bitter Taste” value in experiment [5] is recorded as 10 ppm. Besides, the minimal effective concentration in experiment [6] (setting [8]) was 10 µg/mL.
